One assay has as its target T1, FXR-LBD (Homo sapiens, UniProt Q96RI1).
T1 construct: Add 5 μl of 4×FXR-LBD to 384 well assay plates; purchased
T1 sequence (Q96RI1 262-486 limits assumed): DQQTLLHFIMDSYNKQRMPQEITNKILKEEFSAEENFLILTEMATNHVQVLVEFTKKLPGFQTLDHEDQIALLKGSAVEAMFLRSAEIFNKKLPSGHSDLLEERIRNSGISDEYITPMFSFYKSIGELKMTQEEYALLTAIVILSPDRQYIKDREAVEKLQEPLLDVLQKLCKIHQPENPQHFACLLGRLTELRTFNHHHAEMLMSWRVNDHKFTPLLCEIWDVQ
Briefly: FXR Coactivator Assay (LanthaScreen TR-FRET). The class given is biochemical.
Settings: not given
The procedure:
(§1) • 1. Hek293T cells were plated at 1.1*10^6/ml into a 100 mm dish. • 2. […] Cells were incubated at 37° C. under 5% CO2 atmosphere. • 3. All of compounds were 3-fold serial diluted from 10 mM stock for 10 doses in DMSO. • 4. Transfer compound dilutions into 384 well assay plates using liquid workstation. • 5. Seed 25 ul HEK293T cells into 384 well assay plate (prepared step 4) at 0.6*10^5/ml. Cells were incubated at 37° C. under 5% CO2 atmosphere overnight. • 6. Add 25 ul steady-Glo™ Luciferase Assay Reagent into each well of 384-well assay plate. • 7. […] Calculate EC50 by fitting % Activity values and log of compound concentrations to nonlinear regression (dose response−variable slope) with Graphpad 5.0. FXR Coactivator Assay Reagents: LanthaScreen™ TR-FRET Farnesoid X Receptor Coactivator Assay GW4064 as a positive control Process: • 1. All of compounds were 3-fold serial diluted from 10 mM stock for 10 doses in DMSO. • 2. Dilute each 100× agonist serial dilution to 2× using Complete Coregulator buffer G. • 3. Transfer 10 μl of each of the 2× agonist serial dilutions to 384 well assay plates. • 4. Add 5 μl of 4×FXR-LBD to 384 well assay plates. • 5. […] Incubate at room temperature protected from light. • 7. […] Calculate EC50 by fitting % Activity values and log of compound concentrations to nonlinear regression (dose response−variable slope) with Graphpad 5.0.
For orientation: In TR-FRET formats the signal depends on donor and acceptor labels being close together.
For the compound `COc1cc(C(=O)O)cc2sc(N3CCN(Cc4c(C(C)C)cnn4-c4c(Cl)cccc4Cl)CC3)nc12` [II-03, 2-(4-[[1-(2,6-Dichlorophenyl)-4-(propan-2-yl)-1H-pyrazol-5-yl]methyl]piperazin-1-yl)-4-methoxy-1,3-benzothiazole-6-carboxylic acid], the EC50 was in the range of 10 to 100 nM.

`COc1cc(C(=O)O)cc2sc(N3CCN(Cc4c(-c5c(Cl)cccc5Cl)noc4C4CC4)CC3C)nc12` (stereo not shown) [II-11] registered an EC50 of 10 to 100 nM.

The compound `COc1cc(C(=O)O)cc2sc(N3CCN(Cc4c(-c5c(Cl)cccc5Cl)noc4C4CC4)CC3C)nc12` (stereo not shown) [II-13] yielded an EC50 of 10 to 100 nM.

`COc1cc(C(=O)O)cc2sc(N3CCN(Cc4c(-c5c(Cl)cccc5Cl)noc4C(C)C)CC3(C)C)nc12` [II-16] registered an EC50 of 10 to 100 nM.

Consider `CCC1CN(Cc2c(-c3c(Cl)cccc3Cl)noc2C(C)C)CCN1c1nc2c(OC)cc(C(=O)O)cc2s1` (stereo not shown) [II-18], for which the EC50 lay within 10 to 100 nM.

With `CCC1CN(c2nc3c(OC)cc(C(=O)O)cc3s2)CCN1Cc1c(-c2c(Cl)cccc2Cl)noc1C(C)C` (stereo not shown) [II-20], the EC50 lay in the range of 10 to 100 nM.

The compound `COc1cc(C(=O)O)cc2sc(N3CC=C(Cc4c(-c5c(Cl)cccc5Cl)noc4C4CC4)C[C@H]3C)nc12` [II-46, 2-[(2R)-4-[[5-Cyclopropyl-3-(2,6-dichlorophenyl)-1,2-oxazol-4-yl]methyl]-2-methyl-1,2,3,6-tetrahydropyridin-1-yl]-4-methoxy-1,3-benzothiazole-6-carboxylic acid] showed an EC50 of 10 to 100 nM.

As to `COc1cc(C(=O)O)cc2sc(C3CCN(Cc4c(-c5c(Cl)cccc5Cl)noc4C(C)C)CC3)nc12` [II-47, 2-(1-((3-(2,6-Dichlorophenyl)-5-isopropylisoxazol-4-yl)methyl)piperidin-4-yl)-4-methoxybenzo[d]thiazole-6-carboxylic acid], the EC50 was in the range of 101 to 400 nM.

A further assay concerns the target T2, FXR (Homo sapiens, UniProt Q96RI1).
T2 construct: expressed in transfected cells; host or cells: HEK293T
T2 sequence (Q96RI1 1-486): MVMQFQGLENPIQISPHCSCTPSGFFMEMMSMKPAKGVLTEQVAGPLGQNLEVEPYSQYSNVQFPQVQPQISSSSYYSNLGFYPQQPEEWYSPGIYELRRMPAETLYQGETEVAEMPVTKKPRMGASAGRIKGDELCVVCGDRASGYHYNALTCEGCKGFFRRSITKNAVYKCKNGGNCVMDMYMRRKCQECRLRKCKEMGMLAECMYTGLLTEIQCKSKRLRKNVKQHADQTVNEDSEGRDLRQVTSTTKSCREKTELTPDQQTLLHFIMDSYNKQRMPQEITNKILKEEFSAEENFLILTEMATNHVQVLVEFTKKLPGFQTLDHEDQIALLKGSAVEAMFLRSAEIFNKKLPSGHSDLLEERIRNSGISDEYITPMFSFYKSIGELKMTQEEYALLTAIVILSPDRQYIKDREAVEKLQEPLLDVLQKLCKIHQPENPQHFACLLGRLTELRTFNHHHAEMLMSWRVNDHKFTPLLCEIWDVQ
Nature of the assay: FXR Transactivation Assay (GAL4 luciferase reporter, pBIND-FXR in HEK293T). The class given is cell-based. The settings on record: HEK293T cells. The procedure: FXR Transactivation Assay
pGL4.35 [luc2P/9XGAL4 UAS/Hygro]
Steady-Glo™ Luciferase Assay System
GW4064 as a positive control
as §1
“2-(4-[[3-(2,6-Dichlorophenyl)-5-(propan-2-yl)-1,2-oxazol-4-yl]methyl]piperazin-1-yl)-1-benzofuran-5-carboxylic acid [Compound X-01]”: the EC50 is 401 to 5000 nM.

As for `COc1cc(C(=O)O)cc2sc(N3CCN(Cc4c(-c5c(Cl)cccc5Cl)noc4C(C)C)C(C(C)C)C3)nc12` (racemic) [II-29], the EC50 lay within 401 to 5000 nM.

In turn, `COc1cc(C(=O)O)cc2sc(N3CCN(Cc4c(-c5c(Cl)cccc5Cl)noc4C(C)C)C4CCCCC43)nc12` (racemic) [II-39] displayed an EC50 of 101 to 400 nM.

Compound `COc1cc(C(=O)O)cc2sc(N3CCN(Cc4c(C(C)C)cnn4-c4c(Cl)cccc4Cl)CC3)nc12` [II-03, 2-(4-[[1-(2,6-Dichlorophenyl)-4-(propan-2-yl)-1H-pyrazol-5-yl]methyl]piperazin-1-yl)-4-methoxy-1,3-benzothiazole-6-carboxylic acid] displayed an EC50 of 101 to 400 nM.

Compound `COc1cc(C(=O)O)cc2sc(N3CCN(Cc4c(-c5c(Cl)cccc5Cl)noc4C(C)C)CC3CO)nc12` (stereo not shown) [II-07, 2-(4-[[3-(2,6-Dichlorophenyl)-5-(propan-2-yl)-1,2-oxazol-4-yl]methyl]-2-(hydroxymethyl)piperazin-1-yl)-4-methoxy-1,3-benzothiazole-6-carboxylic acid] yielded a concentration for a half-maximal effect (EC50) of 401 to 5000 nM.

As for `COc1cc(C(=O)O)cc2sc(N3CCN(Cc4c(-c5c(Cl)cccc5Cl)noc4C4CC4)CC3C)nc12` (stereo not shown) [II-11], the concentration for a half-maximal effect (EC50) is 101 to 400 nM.

In turn, `COc1cc(C(=O)O)cc2sc(N3CCN(Cc4c(-c5c(Cl)cccc5Cl)noc4C4CC4)CC3C)nc12` (stereo not shown) [II-13] yielded a concentration for a half-maximal effect (EC50) of 10 to 100 nM.

`COc1cc(C(=O)O)cc2sc(N3CCN(Cc4c(C(C)C)cnn4-c4c(Cl)cccc4Cl)CC3C)nc12` (stereo not shown) [II-14]: the concentration giving a half-maximal response (EC50) is 401 to 5000 nM.

The compound `COc1cc(C(=O)O)cc2sc(N3CCN(Cc4c(C(C)C)cnn4-c4c(Cl)cccc4Cl)CC3C)nc12` (stereo not shown) [II-15] displayed a concentration giving a half-maximal response (EC50) of 10 to 100 nM.

In the case of `COc1cc(C(=O)O)cc2sc(N3CCN(Cc4c(-c5c(Cl)cccc5Cl)noc4C(C)C)CC3(C)C)nc12` [II-16], the EC50 was 101 to 400 nM.

Take `COc1cc(C(=O)O)cc2sc(N3CCN(Cc4c(-c5c(Cl)cccc5Cl)noc4C(C)C)CC34CC4)nc12` [II-17]: the EC50 was 401 to 5000 nM.

For the compound `CCC1CN(Cc2c(-c3c(Cl)cccc3Cl)noc2C(C)C)CCN1c1nc2c(OC)cc(C(=O)O)cc2s1` (stereo not shown) [II-18], the EC50 was 10 to 100 nM.

As to `CCC1CN(c2nc3c(OC)cc(C(=O)O)cc3s2)CCN1Cc1c(-c2c(Cl)cccc2Cl)noc1C(C)C` (stereo not shown) [II-20], the EC50 was in the range of 101 to 400 nM.

For `CCC1CN(c2nc3c(OC)cc(C(=O)O)cc3s2)CCN1Cc1c(-c2c(Cl)cccc2Cl)noc1C1CC1` (stereo not shown) [II-21], the EC50 fell in the range of 101 to 400 nM.

Compound `COc1cc(C(=O)O)cc2sc(N3CCN(Cc4c(-c5c(Cl)cccc5Cl)noc4C4CC4)C(C)(C)C3)nc12` [II-23] registered an EC50 of 401 to 5000 nM.

As for `COc1cc(C(=O)O)cc2sc(N3CCN(Cc4c(-c5c(Cl)cccc5Cl)noc4C4CC4)C(C)C3)nc12` (stereo not shown) [II-25], the EC50 was 101 to 400 nM.

`COc1cc(C(=O)O)cc2sc(N3C4CCC3CN(Cc3c(-c5c(Cl)cccc5Cl)noc3C3CC3)C4)nc12` [II-36] had a half-maximal effective concentration (EC50) of 10 to 100 nM.

On to `COc1cc(C(=O)O)cc2sc(N3CCC(Cc4c(C(C)C)cnn4-c4c(Cl)cccc4Cl)CC3)nc12` [II-44], for which the EC50 is 401 to 5000 nM.

Consider `COc1cc(C(=O)O)cc2sc(N3CCC(Cc4c(-c5c(Cl)cccc5Cl)noc4C(C)C)C[C@H]3C)nc12` (stereo partly drawn) [II-45, 2-((2R)-4-((3-(2,6-Dichlorophenyl)-5-isopropylisoxazol-4-yl)methyl)-2-methylpiperidin-1-yl)-4-methoxybenzo[d]thiazole-6-carboxylic acid], for which the EC50 was in the range of 10 to 100 nM.

Take `COc1cc(C(=O)O)cc2sc(N3CCC(Cc4c(-c5c(Cl)cncc5Cl)noc4C4CC4)CC3)nc12` [II-49]: the EC50 lay in the range of 401 to 5000 nM.

As to `COc1cc(C(=O)O)cc2sc(N3CCC(Cc4c(-c5ccccc5OC(F)(F)F)noc4C4CC4)CC3)nc12` [II-50], the EC50 lay within 10 to 100 nM.

`CC(C)c1onc(-c2c(Cl)cccc2Cl)c1CC1CCN(c2nc3ccc(C(=O)O)cc3s2)CC1` [III-08] registered an EC50 of 401 to 5000 nM.

Take `Cc1cc(C(=O)O)cc2sc(N3CCC(Cc4c(C(C)C)cnn4-c4c(Cl)cccc4Cl)CC3)nc12` [IV-10]: the EC50 was 101 to 400 nM.

As to `COc1cc(C#N)cc2sc(N3CCN(Cc4c(-c5c(Cl)cccc5Cl)noc4C(C)C)CC3)nc12` [IX-01, 2-(4-((3-(2,6-Dichlorophenyl)-5-isopropylisoxazol-4-yl)methyl)piperazin-1-yl)-4-methoxybenzo[d]thiazole-6-carbonitrile], the EC50 was in the range of 401 to 5000 nM.

`COc1cc(-c2nnn[nH]2)cc2sc(N3CCN(Cc4c(-c5c(Cl)cccc5Cl)noc4C(C)C)CC3)nc12` [IX-02, 3-(2,6-Dichlorophenyl)-5-isopropyl-4-((4-(4-methoxy-6-(1H-tetrazol-5-yl)benzo[d]thiazol-2-yl)piperazin-1-yl)methyl)isoxazole] returned an EC50 of 401 to 5000 nM.

With `CC(C)c1onc(-c2c(Cl)cccc2Cl)c1CC1CCN(c2nc3c(F)cc(C(=O)O)cc3s2)CC1` [VI-11], the EC50 is 401 to 5000 nM.

`C[C@@H]1CN(Cc2c(-c3c(Cl)cccc3Cl)noc2C2CC2)CCN1c1nc2c(OC(F)(F)F)cc(C(=O)O)cc2s1` [VII-04, 2-[(2R)-4-[[5-Cyclopropyl-3-(2,6-dichlorophenyl)-1,2-oxazol-4-yl]methyl]-2-methylpiperazin-1-yl]-4-(trifluoromethoxy)-1,3-benzothiazole-6-carboxylic acid] returned an EC50 of 10 to 100 nM.

For `COc1cc(C(N)=O)cc2sc(N3CCN(Cc4c(-c5c(Cl)cncc5Cl)noc4C4CC4)C[C@H]3C)nc12` [VIII-03, 2-[(2R)-4-[[5-Cyclopropyl-3-(3,5-dichloropyridin-4-yl)-1,2-oxazol-4-yl]methyl]-2-methylpiperazin-1-yl]-4-methoxy-1,3-benzothiazole-6-carboxamide], the EC50 lay within 101 to 400 nM.

`COc1cc(C(N)=O)cc2nc(N3CCN(Cc4c(-c5c(Cl)cccc5Cl)noc4C4CC4)C[C@@H]3C)sc12` [VIII-04, (S)-2-(4-((5-Cyclopropyl-3-(2,6-dichlorophenyl)isoxazol-4-yl)methyl)-2-methylpiperazin-1-yl)-7-methoxybenzo[d]thiazole-5-carboxamide] gave an EC50 of 401 to 5000 nM.

The term EC50 denotes the concentration giving half of the maximal effect. A high value points to a less potent agent.

Values taken from US10919903B2, “Nitrogen-containing heterocyclic compounds as FXR modulators” (Hepagene Therapeutics (HK) Limited, priority 2016, dated 2021).
